Assay results: ChEMBL document CHEMBL1201862, “PubChem BioAssay data set” (2004)
One block for each compound: values may come before it. Calls of active or inactive are those of the source.

Key:
[1] = molecular target: NAD-dependent protein deacylase sirtuin-5, mitochondrial (Homo sapiens, UniProt Q9NXA8); assay: sirtuin-5 deacylation blockers, concentration series – biochemical, fluorescence imaging, cherry-pick, set 5, dose response (AID 720591);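 note: desuccinylation of succinyl peptide AMC substrate read as fluorescence after trypsin release; potency of inhibitors that lower fluorescence and may act on trypsin instead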
[2] = molecular target: Eukaryotic translation initiation factor 4E (Mus musculus, UniProt P63073); assay: blockers of eIF4G binding by eIF4E – biochemical, TR-FRET, dose response (AID 855); assay type: functional;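 note: potency for disrupting eIF4E binding to eIF4GI seen as loss of FRET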
[3] = potency of ADAM10 substrate cleavage blockers – biochemical, QFRET, dose response (AID 743254);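 note: ADAM10 enzyme with the DM2 quenched FRET peptide as substrate; EDANS fluorescence gain as the protease cuts the substrate; inhibitor potency against ADAM10 proteolytic activity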
[4] = molecular target: Induced myeloid leukemia cell differentiation protein Mcl-1 (Homo sapiens, UniProt Q07820); assay type: functional
[5] = molecular target: Disintegrin and metalloproteinase domain-containing protein 17 (Homo sapiens, UniProt P78536); assay: inhibition of ADAM17 substrate cleavage – biochemical, quenched FRET substrate, counter-screen for ADAM10 exosite inhibitor project, dose response (AID 743253)
[6] = cells; conditions: HEK293
[7] = molecular target: T1, DNA repair protein RAD52 homolog (Homo sapiens, UniProt P43351); assay type: functional, biochemical
T1 sequence (P43351 whole entry): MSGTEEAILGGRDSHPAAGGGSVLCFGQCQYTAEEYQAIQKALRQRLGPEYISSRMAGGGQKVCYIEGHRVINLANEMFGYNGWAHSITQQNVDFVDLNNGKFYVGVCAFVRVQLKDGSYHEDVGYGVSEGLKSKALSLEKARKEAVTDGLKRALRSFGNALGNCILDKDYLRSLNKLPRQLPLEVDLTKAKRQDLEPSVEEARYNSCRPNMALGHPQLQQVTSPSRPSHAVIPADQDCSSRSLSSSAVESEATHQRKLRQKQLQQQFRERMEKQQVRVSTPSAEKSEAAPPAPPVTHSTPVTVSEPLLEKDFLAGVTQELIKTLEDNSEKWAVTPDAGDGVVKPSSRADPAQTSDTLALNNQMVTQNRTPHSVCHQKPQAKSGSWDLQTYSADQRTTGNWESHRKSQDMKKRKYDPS

[8] = molecular target: COUP transcription factor 2 (Homo sapiens, UniProt P24468); assay: Luminescence-based cell-based high throughput dose response assay to identify inhibitors of COUP-TFII (NR2F2).; assay type: functional;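 note: HEK293 cells transiently cotransfected with COUP-TFII expression vector and reporter; luciferase reporter luminescence driven by COUP-TFII from the pX2-168 reporter plasmid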
[9] = molecular target: Intestinal-type alkaline phosphatase (Mus musculus, UniProt P24822); assay: PubChem AID 488785; assay type: functional
[10] = molecular target: Ras and Rab interactor 1/Tyrosine-protein kinase ABL1 (Homo sapiens, UniProt P00519+Q13671); assay type: functional;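 note: biochemical TR-FRET dose-response test measuring inhibition of binding between Rin1 and Abl proteins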
[11] = molecular target: T2, Intestinal-type alkaline phosphatase (Homo sapiens, UniProt P09923); assay: activation of human intestinal alkaline phosphatase – biochemical, dose response (AID 488873); assay type: functional
[12] = molecular target: Caspase-7 (Homo sapiens, UniProt P55210); assay: caspase-7 enzyme inhibition, selectivity check – biochemical, DEVD-R110 fluorescence, cherry-pick, selectivity assay for caspase-6 inhibitor project, dose response (AID 743295); assay type: functional
[13] = molecular target: T3, Caspase-3 (Homo sapiens, UniProt P42574); assay: human caspase-3 protease activity blockade – biochemical, fluorescence, cherry-picked samples, selectivity assay for caspase-6 allosteric inhibitor project, dose response (AID 743291)
T3 sequence (P42574 whole entry): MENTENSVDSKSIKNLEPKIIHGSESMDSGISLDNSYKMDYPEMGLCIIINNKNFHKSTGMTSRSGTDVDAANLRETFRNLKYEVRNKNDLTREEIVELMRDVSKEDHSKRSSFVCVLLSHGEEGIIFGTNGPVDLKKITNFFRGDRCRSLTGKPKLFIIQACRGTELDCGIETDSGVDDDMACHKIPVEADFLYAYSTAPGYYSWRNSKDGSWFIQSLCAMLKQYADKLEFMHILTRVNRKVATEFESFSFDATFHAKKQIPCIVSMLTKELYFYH

[14] = molecular target: Large T antigen (Simian virus 40, UniProt P03070); assay type: functional, Betapolyomavirus macacae;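 note: Confirmatory-stage PubChem screen for compounds that inhibit SV40 T antigen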
[15] = molecular target: T4, Alkaline phosphatase, tissue-nonspecific isozyme (Homo sapiens, UniProt P05186); assay: TNAP enzyme inhibition by screening hits, dose response, selectivity assay for mouse IAP inhibitor project, biochemical, human TNAP, uHTS hits (AID 488906); assay type: functional
T4 sequence (P05186 whole entry): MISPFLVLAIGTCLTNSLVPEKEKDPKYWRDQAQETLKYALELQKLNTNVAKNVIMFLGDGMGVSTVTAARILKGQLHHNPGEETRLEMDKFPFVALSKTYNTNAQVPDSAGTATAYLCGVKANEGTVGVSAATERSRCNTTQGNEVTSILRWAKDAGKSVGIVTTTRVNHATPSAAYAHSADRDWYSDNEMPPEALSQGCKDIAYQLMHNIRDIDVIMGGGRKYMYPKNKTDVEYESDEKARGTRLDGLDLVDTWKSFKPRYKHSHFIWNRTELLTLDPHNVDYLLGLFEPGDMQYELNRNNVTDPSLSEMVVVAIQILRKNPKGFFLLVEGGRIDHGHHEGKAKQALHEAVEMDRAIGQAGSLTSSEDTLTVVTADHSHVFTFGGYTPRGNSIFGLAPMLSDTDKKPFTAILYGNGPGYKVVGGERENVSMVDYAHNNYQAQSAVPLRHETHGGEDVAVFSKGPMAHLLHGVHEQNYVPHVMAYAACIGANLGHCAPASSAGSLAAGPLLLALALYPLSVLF

[16] = molecular target: T5, Caspase-6 (Homo sapiens, UniProt P55212); assay: inhibition of CASP6 peptide cleavage – biochemical, VEID-R110 fluorescence, cherry-pick, dose response (AID 720632)
T5 sequence (P55212 whole entry): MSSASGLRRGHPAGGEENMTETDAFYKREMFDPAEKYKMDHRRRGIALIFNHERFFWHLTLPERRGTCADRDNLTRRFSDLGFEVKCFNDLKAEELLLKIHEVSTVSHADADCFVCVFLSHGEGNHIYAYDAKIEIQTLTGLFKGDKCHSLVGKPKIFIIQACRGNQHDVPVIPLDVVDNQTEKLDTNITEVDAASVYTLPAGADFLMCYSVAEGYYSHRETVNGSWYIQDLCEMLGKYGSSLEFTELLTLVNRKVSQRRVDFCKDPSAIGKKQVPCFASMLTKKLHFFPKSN

[17] = molecular target: T6, Rac GTPase-activating protein 1 (Homo sapiens, UniProt Q9H0H5); assay: blockers of MgcRacGAP-driven Rac1 GTP hydrolysis – biochemical, ADP Hunter fluorescence, primary and confirmatory, confirmation (AID 624330); assay type: functional
T6 sequence (Q9H0H5 whole entry): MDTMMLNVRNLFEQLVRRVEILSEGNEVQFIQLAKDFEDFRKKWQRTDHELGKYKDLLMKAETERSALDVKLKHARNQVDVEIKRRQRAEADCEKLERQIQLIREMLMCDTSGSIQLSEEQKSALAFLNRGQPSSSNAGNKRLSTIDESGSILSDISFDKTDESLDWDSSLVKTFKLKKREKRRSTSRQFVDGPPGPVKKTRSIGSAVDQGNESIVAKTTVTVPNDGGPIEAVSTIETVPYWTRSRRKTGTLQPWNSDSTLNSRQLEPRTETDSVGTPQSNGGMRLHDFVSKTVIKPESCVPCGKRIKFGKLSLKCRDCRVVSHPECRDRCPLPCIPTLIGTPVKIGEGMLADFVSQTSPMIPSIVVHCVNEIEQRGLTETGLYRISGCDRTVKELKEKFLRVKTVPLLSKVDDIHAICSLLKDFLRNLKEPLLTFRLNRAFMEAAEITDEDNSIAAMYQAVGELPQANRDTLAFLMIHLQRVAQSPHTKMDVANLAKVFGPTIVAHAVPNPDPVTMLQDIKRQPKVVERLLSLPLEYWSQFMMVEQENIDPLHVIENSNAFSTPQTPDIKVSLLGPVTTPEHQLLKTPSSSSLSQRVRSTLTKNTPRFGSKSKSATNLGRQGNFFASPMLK

[18] = molecular target: Caspase-8 (Homo sapiens, UniProt Q14790); assay: inhibitors of purified CASP8 protease – biochemical, Z-IETD-R110 fluorescence, cherry-picked samples, selectivity assay for caspase-6 inhibitor project, dose response (AID 743294)
[19] = molecular target: T7, Small ubiquitin-related modifier 1 (Homo sapiens, UniProt P63165); assay: SUMO1 protein-protein binding blockers, potency – biochemical, FRET, dose response (AID 624383); assay type: functional; conditions: read-out: IC50_Mean
[20] = molecular target: T2, Intestinal-type alkaline phosphatase; assay: inhibition of human intestinal alkaline phosphatase – biochemical, dose response (AID 488876); assay type: functional
[21] = molecular target: T8, Histone-lysine N-methyltransferase NSD2 (Homo sapiens, UniProt O96028); assay type: biochemical
T8 sequence (O96028 whole entry): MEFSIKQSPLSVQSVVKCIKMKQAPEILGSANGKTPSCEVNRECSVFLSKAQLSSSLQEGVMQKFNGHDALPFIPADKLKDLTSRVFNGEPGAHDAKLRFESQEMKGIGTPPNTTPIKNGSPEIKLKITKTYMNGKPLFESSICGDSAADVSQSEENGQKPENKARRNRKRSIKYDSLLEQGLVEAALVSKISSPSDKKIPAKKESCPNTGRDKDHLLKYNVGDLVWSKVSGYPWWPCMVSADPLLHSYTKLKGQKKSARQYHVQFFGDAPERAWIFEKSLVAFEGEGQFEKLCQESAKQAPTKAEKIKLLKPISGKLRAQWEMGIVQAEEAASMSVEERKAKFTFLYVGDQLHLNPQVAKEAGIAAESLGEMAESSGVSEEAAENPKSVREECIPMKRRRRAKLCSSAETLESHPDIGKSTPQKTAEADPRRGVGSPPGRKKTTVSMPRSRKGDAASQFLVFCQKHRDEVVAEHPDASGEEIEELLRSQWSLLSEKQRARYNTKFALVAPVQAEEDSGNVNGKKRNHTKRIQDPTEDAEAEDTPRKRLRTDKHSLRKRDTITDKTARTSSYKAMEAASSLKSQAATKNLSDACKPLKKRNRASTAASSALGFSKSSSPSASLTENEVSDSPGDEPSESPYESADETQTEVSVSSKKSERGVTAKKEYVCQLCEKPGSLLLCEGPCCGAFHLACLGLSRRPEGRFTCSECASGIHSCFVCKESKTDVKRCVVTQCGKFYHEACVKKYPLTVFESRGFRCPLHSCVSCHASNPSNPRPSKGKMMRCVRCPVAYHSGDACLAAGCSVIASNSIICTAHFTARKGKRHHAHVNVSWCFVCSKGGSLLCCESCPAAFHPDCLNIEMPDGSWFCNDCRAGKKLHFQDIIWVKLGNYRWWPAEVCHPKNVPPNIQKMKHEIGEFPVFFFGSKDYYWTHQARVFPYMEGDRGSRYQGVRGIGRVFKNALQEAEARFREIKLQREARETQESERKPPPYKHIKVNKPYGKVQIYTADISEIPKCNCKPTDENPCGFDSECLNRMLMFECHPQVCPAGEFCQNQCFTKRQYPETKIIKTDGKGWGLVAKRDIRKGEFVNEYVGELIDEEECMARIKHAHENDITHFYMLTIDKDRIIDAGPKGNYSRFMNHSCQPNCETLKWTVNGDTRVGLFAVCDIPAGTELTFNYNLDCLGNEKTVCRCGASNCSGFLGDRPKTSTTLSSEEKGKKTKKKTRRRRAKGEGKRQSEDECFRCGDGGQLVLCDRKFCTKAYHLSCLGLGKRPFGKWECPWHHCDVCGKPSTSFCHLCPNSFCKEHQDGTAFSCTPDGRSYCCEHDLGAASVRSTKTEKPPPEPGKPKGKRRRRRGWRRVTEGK

[22] = molecular target: T7, Small ubiquitin-related modifier 1; assay: SUMO1 protein interaction blockers, potency – biochemical, fluorescence polarization, uHTS hits, dose response (AID 624382); assay type: functional; conditions: read-out: IC50_Mean
[23] = molecular target: T9, Small ubiquitin-related modifier 2 (Homo sapiens, UniProt P61956); assay: SUMO2 binding disruption by SUMO1 hits – biochemical, FRET, human SUMO2, uHTS hits, selectivity assay for SUMO1 interaction inhibitor project, dose response (AID 624384); assay type: functional; conditions: read-out: IC50_Mean
[24] = molecular target: T9, Small ubiquitin-related modifier 2; assay: disruption of SUMO2 interaction with SIM peptide – biochemical, fluorescence polarization, uHTS hits, selectivity assay for SUMO1 interaction inhibitor project, dose response (AID 624385); assay type: functional; conditions: read-out: IC50_Mean
[25] = viability loss in HepG2 liver cells – cell-based, ATP luminescence, cherry-pick, set 6, cytotoxicity control, dose response (AID 1053125); assay type: functional

T7 sequence (P63165 whole entry): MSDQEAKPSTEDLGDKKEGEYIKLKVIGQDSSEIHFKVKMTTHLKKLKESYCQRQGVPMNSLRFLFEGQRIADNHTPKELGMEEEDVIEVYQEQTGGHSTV
T2 sequence (P09923 whole entry): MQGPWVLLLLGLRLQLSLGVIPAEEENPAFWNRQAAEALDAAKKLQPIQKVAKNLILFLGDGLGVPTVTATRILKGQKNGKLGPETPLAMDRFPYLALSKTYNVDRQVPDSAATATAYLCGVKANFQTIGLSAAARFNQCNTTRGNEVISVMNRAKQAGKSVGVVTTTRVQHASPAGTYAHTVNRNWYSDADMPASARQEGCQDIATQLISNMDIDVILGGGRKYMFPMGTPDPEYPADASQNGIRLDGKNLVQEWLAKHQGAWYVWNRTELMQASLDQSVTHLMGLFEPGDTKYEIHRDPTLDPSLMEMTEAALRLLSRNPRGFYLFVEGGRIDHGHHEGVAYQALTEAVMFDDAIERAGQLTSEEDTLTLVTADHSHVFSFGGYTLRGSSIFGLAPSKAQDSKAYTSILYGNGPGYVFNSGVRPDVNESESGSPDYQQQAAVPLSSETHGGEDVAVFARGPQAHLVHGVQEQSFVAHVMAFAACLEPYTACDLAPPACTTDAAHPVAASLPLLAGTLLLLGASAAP
Caspase-7, sequence (P55210 24-198 limits assumed): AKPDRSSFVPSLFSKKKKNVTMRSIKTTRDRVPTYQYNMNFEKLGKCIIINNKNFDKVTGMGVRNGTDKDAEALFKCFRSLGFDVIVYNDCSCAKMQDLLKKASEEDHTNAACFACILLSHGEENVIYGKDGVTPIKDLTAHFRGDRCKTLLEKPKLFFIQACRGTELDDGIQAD
Caspase-7, sequence (P55210 207-303 limits assumed): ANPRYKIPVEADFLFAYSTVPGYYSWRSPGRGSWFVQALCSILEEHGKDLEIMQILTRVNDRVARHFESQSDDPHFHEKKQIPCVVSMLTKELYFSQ
T9 sequence (P61956 whole entry): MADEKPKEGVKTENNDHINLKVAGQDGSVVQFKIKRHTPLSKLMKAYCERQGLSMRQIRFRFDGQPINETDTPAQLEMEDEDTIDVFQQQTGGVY
Induced myeloid leukemia cell differentiation protein Mcl-1, sequence (Q07820 whole entry, the tested form may be a part): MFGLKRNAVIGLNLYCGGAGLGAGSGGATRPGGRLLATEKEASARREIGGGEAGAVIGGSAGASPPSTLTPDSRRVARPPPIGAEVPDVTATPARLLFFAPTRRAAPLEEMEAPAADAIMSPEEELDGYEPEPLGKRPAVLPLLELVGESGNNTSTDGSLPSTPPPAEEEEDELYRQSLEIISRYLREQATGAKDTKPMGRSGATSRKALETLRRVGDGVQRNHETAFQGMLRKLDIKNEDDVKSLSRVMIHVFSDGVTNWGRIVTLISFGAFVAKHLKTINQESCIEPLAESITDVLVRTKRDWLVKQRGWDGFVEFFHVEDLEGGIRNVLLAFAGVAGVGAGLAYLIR
Intestinal-type alkaline phosphatase (Mus musculus, UniProt P24822), sequence (P24822 whole entry): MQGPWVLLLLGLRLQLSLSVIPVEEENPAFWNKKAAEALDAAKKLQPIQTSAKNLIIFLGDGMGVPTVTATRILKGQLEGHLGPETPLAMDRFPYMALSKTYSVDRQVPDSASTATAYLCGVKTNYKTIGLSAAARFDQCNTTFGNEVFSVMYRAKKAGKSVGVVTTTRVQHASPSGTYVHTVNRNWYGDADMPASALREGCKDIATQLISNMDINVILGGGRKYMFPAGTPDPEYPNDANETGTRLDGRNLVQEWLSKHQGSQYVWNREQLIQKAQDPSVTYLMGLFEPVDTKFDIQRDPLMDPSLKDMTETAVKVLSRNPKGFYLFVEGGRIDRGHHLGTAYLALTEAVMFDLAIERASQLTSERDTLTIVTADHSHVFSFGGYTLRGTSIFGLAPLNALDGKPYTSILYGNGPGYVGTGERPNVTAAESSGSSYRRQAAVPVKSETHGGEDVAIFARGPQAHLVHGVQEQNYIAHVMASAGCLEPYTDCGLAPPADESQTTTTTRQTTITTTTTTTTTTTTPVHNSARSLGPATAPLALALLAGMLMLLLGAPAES
Eukaryotic translation initiation factor 4E, sequence (P63073 whole entry): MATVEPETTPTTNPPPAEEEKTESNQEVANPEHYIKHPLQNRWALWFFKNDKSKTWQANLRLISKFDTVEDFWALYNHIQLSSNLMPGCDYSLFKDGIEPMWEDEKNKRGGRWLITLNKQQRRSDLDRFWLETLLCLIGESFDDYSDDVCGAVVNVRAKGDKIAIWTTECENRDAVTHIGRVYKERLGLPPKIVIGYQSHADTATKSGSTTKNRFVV
COUP transcription factor 2, sequence (P24468 whole entry): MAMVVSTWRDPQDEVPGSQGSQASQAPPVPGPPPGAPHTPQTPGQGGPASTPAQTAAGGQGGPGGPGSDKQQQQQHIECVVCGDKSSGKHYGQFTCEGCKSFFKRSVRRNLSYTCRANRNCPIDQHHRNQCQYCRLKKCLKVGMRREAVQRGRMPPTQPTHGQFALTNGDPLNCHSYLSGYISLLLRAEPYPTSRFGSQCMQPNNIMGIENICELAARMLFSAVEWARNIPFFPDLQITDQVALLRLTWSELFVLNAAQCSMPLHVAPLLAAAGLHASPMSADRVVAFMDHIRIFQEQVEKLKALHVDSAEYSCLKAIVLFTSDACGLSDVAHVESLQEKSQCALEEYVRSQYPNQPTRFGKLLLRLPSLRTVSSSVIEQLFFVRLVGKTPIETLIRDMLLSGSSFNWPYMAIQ
Large T antigen, sequence (P03070 whole entry): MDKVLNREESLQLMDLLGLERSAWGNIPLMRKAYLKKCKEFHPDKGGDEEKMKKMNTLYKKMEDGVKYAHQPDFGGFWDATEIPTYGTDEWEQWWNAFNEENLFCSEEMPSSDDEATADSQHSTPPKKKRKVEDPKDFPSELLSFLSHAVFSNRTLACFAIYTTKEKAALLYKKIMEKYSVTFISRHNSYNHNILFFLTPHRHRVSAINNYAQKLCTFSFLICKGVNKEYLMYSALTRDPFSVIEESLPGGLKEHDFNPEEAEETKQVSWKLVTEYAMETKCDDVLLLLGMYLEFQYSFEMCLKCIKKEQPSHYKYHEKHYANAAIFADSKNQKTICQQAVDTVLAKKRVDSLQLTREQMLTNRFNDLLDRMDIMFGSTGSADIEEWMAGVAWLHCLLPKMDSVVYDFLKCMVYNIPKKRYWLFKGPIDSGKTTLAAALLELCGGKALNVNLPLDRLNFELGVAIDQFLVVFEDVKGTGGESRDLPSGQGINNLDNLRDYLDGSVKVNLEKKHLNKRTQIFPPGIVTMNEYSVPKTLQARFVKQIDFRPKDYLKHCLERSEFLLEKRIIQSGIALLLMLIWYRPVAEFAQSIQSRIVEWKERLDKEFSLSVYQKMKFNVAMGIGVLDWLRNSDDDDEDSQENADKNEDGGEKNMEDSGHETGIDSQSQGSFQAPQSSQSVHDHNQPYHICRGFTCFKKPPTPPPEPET
Disintegrin and metalloproteinase domain-containing protein 17, sequence (P78536 whole entry, the tested form may be a part): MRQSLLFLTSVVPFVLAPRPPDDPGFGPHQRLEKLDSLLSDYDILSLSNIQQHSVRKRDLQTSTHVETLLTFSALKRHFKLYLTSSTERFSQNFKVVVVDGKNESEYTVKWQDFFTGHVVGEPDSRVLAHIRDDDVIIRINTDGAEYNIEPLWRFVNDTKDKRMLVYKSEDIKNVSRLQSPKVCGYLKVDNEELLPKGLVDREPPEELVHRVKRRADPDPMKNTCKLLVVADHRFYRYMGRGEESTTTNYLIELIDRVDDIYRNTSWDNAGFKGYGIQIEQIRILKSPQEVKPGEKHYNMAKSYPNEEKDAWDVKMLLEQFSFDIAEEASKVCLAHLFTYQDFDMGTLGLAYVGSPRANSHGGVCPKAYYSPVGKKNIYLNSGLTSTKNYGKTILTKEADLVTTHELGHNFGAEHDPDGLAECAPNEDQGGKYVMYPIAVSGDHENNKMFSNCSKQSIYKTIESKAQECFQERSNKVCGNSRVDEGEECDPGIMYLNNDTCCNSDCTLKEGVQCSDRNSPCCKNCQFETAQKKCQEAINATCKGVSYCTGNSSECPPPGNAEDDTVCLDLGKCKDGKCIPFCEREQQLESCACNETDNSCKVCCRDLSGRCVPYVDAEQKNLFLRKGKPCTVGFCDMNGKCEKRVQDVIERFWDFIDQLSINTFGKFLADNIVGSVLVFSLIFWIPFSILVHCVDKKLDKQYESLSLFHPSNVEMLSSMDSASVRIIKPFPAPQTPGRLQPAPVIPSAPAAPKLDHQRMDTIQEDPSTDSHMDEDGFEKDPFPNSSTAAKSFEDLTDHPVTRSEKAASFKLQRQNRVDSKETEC
NAD-dependent protein deacylase sirtuin-5, mitochondrial, sequence (Q9NXA8 whole entry): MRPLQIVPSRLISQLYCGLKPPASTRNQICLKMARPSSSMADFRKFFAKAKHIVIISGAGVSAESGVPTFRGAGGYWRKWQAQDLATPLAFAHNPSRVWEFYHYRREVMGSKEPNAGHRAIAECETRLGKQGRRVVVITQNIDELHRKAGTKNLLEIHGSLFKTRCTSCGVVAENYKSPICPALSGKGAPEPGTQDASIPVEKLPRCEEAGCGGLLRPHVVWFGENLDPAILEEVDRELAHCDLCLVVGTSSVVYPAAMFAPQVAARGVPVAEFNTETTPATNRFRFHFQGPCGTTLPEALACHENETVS
Caspase-8, sequence (Q14790 217-374 limits assumed): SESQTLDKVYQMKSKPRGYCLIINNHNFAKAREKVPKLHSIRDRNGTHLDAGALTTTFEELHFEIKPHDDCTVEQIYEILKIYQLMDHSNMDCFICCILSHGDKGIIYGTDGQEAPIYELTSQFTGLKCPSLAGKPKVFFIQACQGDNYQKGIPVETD
Caspase-8, sequence (Q14790 385-479 limits assumed): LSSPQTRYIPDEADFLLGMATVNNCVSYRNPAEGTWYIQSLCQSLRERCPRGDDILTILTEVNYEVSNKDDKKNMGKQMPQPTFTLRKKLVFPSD

SMILES: C1CCNCC1.N#CC1=C(N)Oc2cc(O)ccc2C1c1ccc2c(c1)OCO2 (stereo not given)
AC50 [6]: > 52 µM (inactive)

SMILES: O=C(CCO)c1ccc(O)cc1
IC50 [9]: > 100 µM (inactive)
IC50 [10]: 11.9 µM (inactive)
EC50 [11]: 11.3 µM (active)
AC50 [12]: 9.65 µM (active)
AC50 [13]: 31.7 µM (active)
IC50 [14]: 28.8 µM (active)
IC50 [15]: > 100 µM (inactive)
IC50 [4]: 5.16 µM (active)
AC50 [16]: 1.32 µM (active)

SMILES: O=C(COC(=O)c1ccccc1)Nc1ncc([N+](=O)[O-])s1
IC50 [9]: < 0.195 µM (active)
IC50 [17]: 50.2 µM (active)
AC50 [18]: 61.3 µM (active)
IC50 [19]: 51.7 µM (inactive)
IC50 [20]: 80.6 µM (active)
AC50 [21]: 2.74 µM (active)
IC50 [22]: 9.39 µM (active)
AC50 [12]: 16.3 µM (active)
IC50 [23]: > 66 µM (inactive)
IC50 [15]: 1.06 µM (active)
AC50 [16]: 0.951 µM (active)
IC50 [24]: 14.7 µM (active)

SMILES: CCOC(=O)c1cc2c(=O)n3ccccc3nc2n(C(C)C)/c1=N/C(=O)c1ccco1
AC50 [25]: > 52 µM (inactive)

Next, values leading:

AC50 [1]: > 30 µM (inactive)
SMILES: O=C(Cn1nc(-c2ccc(Cl)cc2)ccc1=O)NCC1COCCO1 (stereo not given)

IC50 [2]: 50 µM (inactive)
IC50 [3]: 4.72 µM (active)
IC50 [4]: 4.76 µM (not active)
IC50 [5]: 20 µM (inactive)
SMILES: Oc1cc2c(cc1C(c1ccc(Cl)c(Cl)c1)N1CCCC1)OCO2 (stereo not given)

AC50 [7]: 1.07 µM (active)
IC50 [8]: 5.24 µM (active)
SMILES: NC(S)=NN=C1c2cc(OCCN3CCOCC3)ccc2-c2ccc(OCCN3CCOCC3)cc21
